The results in this text go back to ChEMBL document CHEMBL3600287, “New heterocyclic compounds: Synthesis and antitrypanosomal properties” (Bioorg Med Chem, 2015).

The subject of data set [1] is Trypanosoma brucei brucei. In words: Antitrypanosomal activity against Trypanosoma brucei brucei CMP infected in Swiss mouse assessed as parasite number level ul of blood at 100 umol/kg, ip administered as single dose measured on day 2. It counts as functional.
For data set [2], the system named is Mus musculus. Description: Toxicity against Swiss mouse infected with Trypanosoma brucei brucei CMP assessed as animal death at 50 umol/kg, ip administered as single dose. Format: organism-based. The conditions noted are these: in vivo.
In data set [3] the test system is Trypanosoma brucei brucei. In words: Antitrypanosomal activity against Trypanosoma brucei brucei CMP infected in Swiss mouse assessed as parasite number level ul of blood at 50 umol/kg, ip administered as single dose measured on day 2. Format: functional.
Data set [4] deals with Trypanosoma brucei brucei. Description: Antitrypanosomal activity against Trypanosoma brucei brucei CMP infected in Swiss mouse assessed as parasite number level ul of blood at 100 umol/kg, ip administered as single dose measured on day 4. It counts as functional.
Data set [5] deals with Trypanosoma brucei brucei. Description: Antitrypanosomal activity against Trypanosoma brucei brucei CMP infected in Swiss mouse assessed as mean survival time at 50 umol/kg, ip administered as single dose. It counts as functional.
Data set [6] relates to Mus musculus. In words: Toxicity against Swiss mouse infected with Trypanosoma brucei brucei CMP assessed as animal death at 100 umol/kg, ip administered as single dose. Format: organism-based. The conditions noted are these: in vivo.
Data set [7] concerns Trypanosoma brucei brucei. Description: Antitrypanosomal activity against Trypanosoma brucei brucei CMP infected in Swiss mouse assessed as mean survival time at 100 umol/kg, ip administered as single dose. Format: functional.
Data set [8] deals with Trypanosoma brucei brucei. Description: Antitrypanosomal activity against Trypanosoma brucei brucei CMP infected in Swiss mouse assessed as parasite number level ul of blood at 100 umol/kg, ip administered as single dose measured on day 3. Format: functional.
In data set [9] the test system is Trypanosoma brucei brucei. In words: Antitrypanosomal activity against Trypanosoma brucei brucei CMP infected in Swiss mouse assessed as cure rate at 50 umol/kg, ip administered as single dose. It counts as functional.
The nature of data set [10]: Cytotoxicity against mouse 3T6 cells assessed as inhibition of cell proliferation after 48 hrs by MTT assay. Format: cell-based. For orientation: Tetrazolium dyes change colour on reduction, which living cells bring about.
Data set [11] concerns Trypanosoma brucei gambiense. Description: Antitrypanosomal activity against Trypanosoma brucei gambiense FeoITMAP/1893 assessed as inhibition of parasite growth after 72 hrs by resazurin dye based microplate reader analysis. It counts as functional, organism-based. The conditions noted are these: FeoITMAP/1893, 72 h.
Data set [12] has as its system Trypanosoma brucei brucei. Description: Antitrypanosomal activity against Trypanosoma brucei brucei CMP infected in Swiss mouse assessed as parasite number level ul of blood at 50 umol/kg, ip administered as single dose measured on day 3. Format: functional.
A short description of data set [13]: Selectivity index, ratio of CC50 for mouse 3T6 cells to IC50 for Trypanosoma brucei gambiense strain FeoITMAP/1893. Format: functional.
The subject of data set [14] is Trypanosoma brucei brucei. In words: Antitrypanosomal activity against Trypanosoma brucei brucei CMP infected in Swiss mouse assessed as parasite number level ul of blood at 50 umol/kg, ip administered as single dose measured on day 4. Format: functional.
In data set [15] the test system is Trypanosoma brucei brucei. Description: Antitrypanosomal activity against Trypanosoma brucei brucei CMP infected in Swiss mouse assessed as cure rate at 100 umol/kg, ip administered as single dose. Format: functional.
The nature of data set [16]: Cytotoxicity against monkey LLC-MK2 cells. Format: cell-based, Macaca mulatta. The conditions noted are these: rhesus monkey.
Data set [17] deals with Trypanosoma brucei brucei. Description: Antitrypanosomal activity against Trypanosoma brucei brucei CMP infected in Swiss mouse assessed as parasite number level ul of blood at 100 umol/kg, ip administered as single dose measured on day 30. Format: functional.

A value given as a limit tells only on which side of the number the result lay.

Turning to `CCOC(=O)c1cn(C2CC2)c2cc(N3CCN(Cc4ccccc4)CC3)c(F)cc2c1=O`, the Activity is 0 µL⁻¹ in data set [1]; “Non-toxic” in data set [2]; 0 µL⁻¹ in data set [3]; 0 µL⁻¹ in data set [4]; “Non-toxic” in data set [6]; 0 µL⁻¹ in data set [8]. Moreover, the Activity in data set [9] amounted to 0%; in [12] it was 0 µL⁻¹; in [14], 7 µL⁻¹; in [15], 0%. Further, the results for the MST in data set [5] and in data set [7] were 6.1 days and 8.2 days, respectively. In [10], the CC50 – broadly, the concentration giving 50% cytotoxicity – at 48 h was > 30 µM. Besides, the IC50 – broadly, the midpoint of a concentration-inhibition curve – in [11] was 6.03 µM. In addition, the “Ratio CC50/IC50” value in [13] was 5.

Regarding `CCOC(=O)c1cn(C2CC2)c2cc(N3CCN(CC45CC6CC(CC(C6)C4)C5)CC3)c(F)cc2c1=O`, in [10], the CC50 at 48 h is 27.8 µM. Moreover, the IC50 in data set [11] was found to be 23.1 µM. The “Ratio CC50/IC50” value in [13] amounted to 1.2.

Consider `Fc1ccc2[nH]c(-c3ccc(Nc4ccnc5cc(Cl)ccc45)cc3)nc2c1`, for which the Activity in data set [1] is 0 µL⁻¹; in data set [2], “Non-toxic”; in data set [3], 13.7 µL⁻¹; in data set [4], 31590 µL⁻¹; in data set [6] it was “Non-toxic”; in data set [8], 97 µL⁻¹. In addition, the Activity is 0% in [9], 117 µL⁻¹ in [12], 28317 µL⁻¹ in data set [14] and 0% in data set [15]. The MST came out at 1.1 days in data set [5] and 1.2 days in [7]. In addition, half-maximal cytotoxicity in [16] (CC50) was put at 10.6 µM. Besides, the IC50 in data set [11] came to 1.98 µM. In [13], the “Ratio CC50/IC50” value is listed as 5.3.

In turn, `Clc1ccc2c(Nc3ccc(-c4nc5ccccc5[nH]4)cc3)ccnc2c1` returned a CC50 in [16] of 15.5 µM. In data set [11], the IC50 is 3.79 µM. Further, in data set [13], the “Ratio CC50/IC50” value is 4.1.

Turning to `N=C(N)c1ccc(OCCCCCOc2ccc(C(=N)N)cc2)cc1.O=S(=O)(O)CCO`, the Activity was 0 µL⁻¹ in [4]; “Non-toxic” in [6]; 0 µL⁻¹ in data set [8]; 100% in data set [15]; 0 µL⁻¹ in [17]. Further, in data set [7], the MST is >30 days.

As for `CCN(CC)CCCC(C)Nc1ccnc2cc(Cl)ccc12.O=P(O)(O)O.O=P(O)(O)O` (stereo not drawn) [CHLOROQUINE PHOSPHATE], the Activity was 23.7 µL⁻¹ in data set [1]; 42607 µL⁻¹ in data set [4]; “Non-toxic” in data set [6]; 498 µL⁻¹ in data set [8]; 0% in data set [15]. Further, the MST in data set [7] turned out to be 0 days.

Take `CCOC(=O)c1cn(C2CC2)c2cc(N3CCNCC3)c(F)cc2c1=O` [CIPROFLOXACIN ETHYL ESTER]: the CC50 at 48 h in [10] is > 30 µM. Also, the IC50 in data set [11] was found to be 26 µM. The “Ratio CC50/IC50” value in data set [13] came to 1.2.

For the molecule `O=C(O)c1cn(C2CC2)c2cc(N3CCNCC3)c(F)cc2c1=O` [CIPROFLOXACIN], the IC50 in data set [11] amounted to 52 µM.

For the molecule `N=C(N)c1ccc(OCCCCCOc2ccc(C(=N)N)cc2)cc1` [PENTAMIDINE], the IC50 in data set [11] amounted to 0.0049 µM.
